Numbered stars: 1 amine (or outer) side, 2 acyl side, 3 side chain; on linkers, the order of the positions; unused ones are H or OH. Bridge positions count the residues as written; N and C are the ends. Square brackets hold non-standard residues; d marks the D form. Peptide text beside a SMILES is read from it. * marks the point of attachment. Pro(trans-4-Ph) = O=C(O)[C@@H]1C[C@@H](c2ccccc2)CN1; C20 diacid = O=C(O)CCCCCCCCCCCCCCCCCCC(=O)*; γGlu = O=C(O)[C@H](CCC(=O)[*:2])N[*:1]; NMeI = CC[C@H](C)[C@H](NC)C(=O)O; Sar = CNCC(=O)O
How the values were obtained:
[1] = target: T1, human amylin receptor 3 (hAMYR3) consisting of hCTR2 co-expressed with human Receptor Activity Modifying Protein 3 (hRAMP3) (Homo sapiens, UniProt O60896+P30988); assay: hAMYR3 assay: induction of cAMP (AlphaScreen cAMP Assay kit) in COS7 cells expressing hAMYR3; format: cell-based
T1 construct: expressed in transfected cells
T1 sequence (P30988 25-474): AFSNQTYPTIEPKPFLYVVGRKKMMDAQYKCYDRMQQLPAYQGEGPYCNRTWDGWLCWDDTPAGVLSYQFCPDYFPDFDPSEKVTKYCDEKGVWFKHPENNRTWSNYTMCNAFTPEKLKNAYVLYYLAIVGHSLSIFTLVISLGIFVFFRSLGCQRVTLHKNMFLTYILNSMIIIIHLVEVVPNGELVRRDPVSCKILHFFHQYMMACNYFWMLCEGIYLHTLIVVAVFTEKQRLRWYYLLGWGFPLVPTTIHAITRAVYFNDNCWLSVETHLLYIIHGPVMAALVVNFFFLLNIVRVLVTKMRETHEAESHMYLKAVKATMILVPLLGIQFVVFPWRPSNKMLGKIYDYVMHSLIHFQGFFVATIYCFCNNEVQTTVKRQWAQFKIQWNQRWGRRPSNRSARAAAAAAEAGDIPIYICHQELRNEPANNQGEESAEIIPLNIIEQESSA
T1 sequence (O60896 24-148 partner): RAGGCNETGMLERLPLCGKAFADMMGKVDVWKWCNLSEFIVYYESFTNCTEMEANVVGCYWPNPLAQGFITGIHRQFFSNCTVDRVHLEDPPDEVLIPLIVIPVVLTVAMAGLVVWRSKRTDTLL
Summary of the method: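 cAMP accumulation read by AlphaScreen in lysates of RAMP-naive COS7 cells stably transfected with hCTR2 plus hRAMP3. Cells exposed to peptide dilutions for 15 min, 37° C, with 100 µM IBMX; 4PL fitting gave EC50 and efficacy relative to pramlintide.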

[2] = target: T2, human calcitonin receptor (hCTR2) (Homo sapiens, UniProt P30988); assay: hCTR2 assay: induction of cAMP (AlphaScreen cAMP Assay kit) in COS7 cells expressing hCTR2; format: cell-based
T2 construct: expressed in transfected cells
T2 sequence (P30988 25-474): T1 sequence (P30988 25-474)
Summary of the method: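 cAMP read-out by AlphaScreen after cell lysis; EC50 and % efficacy vs pramlintide from 4-parameter logistic fitting. Agonist stimulation: hCTR2-COS7 stable cells, 15 min, 37° C, 100 µM IBMX, 0.1% casein, Tyrode/HEPES pH 7.4.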

[3] = Solubility assessment (turbidity absorbance at 325 nm); format: physicochemical; details: stock 2 mg/ml diluted 1:1, ambient temperature (typically 25°C), n=1
Summary of the method: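 Turbidimetric screen across pH 4.0–7.5 in 100 mM acetate, histidine and phosphate buffers. A 2 mg/ml peptide stock (pH 2.5) was diluted 1:1 into each, then A325 measured at ambient temperature; values ≤ 0.02 AU denoted solubility of 1 mg/ml or more.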

Which EC50 [1] does the source give for CC[C@H](C)[C@@H](C(=O)N[C@@H](CC(C)C)C(=O)N[C@@H](CO)C(=O)N[C@@H](CO)C(=O)N[C@H](C(=O)N[C@@H](CC(N)=O)C(=O)N[C@H](C(=O)NCC(=O)N[C@@H](CO)C(=O)N[C@@H](CC(N)=O)C(=O)N[C@H](C(=O)N1C[C@H](c2ccccc2)C[C@H]1C(N)=O)[C@@H](C)O)C(C)C)[C@@H](C)O)N(C)C(=O)[C@H](C)NC(=O)CN(C)C(=O)[C@H](Cc1ccccc1)NC(=O)[C@H](CC(N)=O)NC(=O)[C@H](CC(N)=O)NC(=O)[C@H](CO)NC(=O)[C@H](CO)NC(=O)[C@H](CCCNC(=N)N)NC(=O)[C@H](Cc1c[nH]cn1)NC(=O)[C@H](CC(C)C)NC(=O)[C@H](Cc1ccccc1)NC(=O)[C@H](CCC(=O)O)NC(=O)[C@H](C)NC(=O)[C@H](CC(C)C)NC(=O)[C@H](CCCNC(=N)N)NC(=O)[C@H](CCC(N)=O)NC(=O)[C@@H](NC(=O)[C@H](C)NC(=O)[C@@H]1CSSC[C@H](NC(=O)[C@H](CCCNC(=N)N)NC(=O)CC[C@H](NC(=O)CCCCCCCCCCCCCCCCCCC(=O)O)C(=O)O)C(=O)N[C@@H](CC(N)=O)C(=O)N[C@@H]([C@@H](C)O)C(=O)N[C@@H](C)C(=O)N[C@@H]([C@@H](C)O)C(=O)N1)[C@@H](C)O [Compound 112, [19CD]-isoGlu-RC()NTATC()ATQRLAEFLHRSSNNF-Gly(Me)-A-Ile(Me)-LSSTNVGSNT-Php-NH2] ({C20 diacid-γGlu}-RCNTATCATQRLAEFLHRSSNNF[Sar]A[NMeI]LSSTNVGSNT[Pro(trans-4-Ph)]-NH2; disulfide 2-7) here?
The EC50 was 0.15 nM.

What about the EC50 [2] of the same compound?
The EC50 was 0.16 nM.

And the “Solubility, Acetate buffer pH 4” value ([3]; 100 mM acetate buffer pH 4.0)?
The value was “SS (SS indicates solubility ≥ 1mg/ml)”.

What about the “Solubility, Acetate buffer pH 5” value ([3]; 100 mM acetate buffer pH 5.0) of the same compound?
Its value is “SS (SS indicates solubility ≥ 1mg/ml)”.

What about the “Solubility, Histidine buffer pH 6” value ([3]; 100 mM histidine buffer pH 6.0) of the same compound?
The value was “SS (SS indicates solubility ≥ 1mg/ml)”.

What about the “Solubility, Histidine buffer pH 7” value ([3]; 100 mM histidine buffer pH 7.0) of the same compound?
Its value is “II (II indicates solubility ≤ 1 mg/ml)”.

What about the “Solubility, Phosphate buffer pH 6” value ([3]; 100 mM phosphate buffer pH 6.0) of the same compound?
The value was “II (II indicates solubility ≤ 1 mg/ml)”.

And the “Solubility, Phosphate buffer pH 7” value ([3]; 100 mM phosphate buffer pH 7.0)?
The value was “SS (SS indicates solubility ≥ 1mg/ml)”.

What about the “Solubility, Phosphate buffer pH 7.5” value ([3]; 100 mM phosphate buffer pH7.5) of the same compound?
Its value is “II (II indicates solubility ≤ 1 mg/ml)”.
